Results from paper PMC5608272 (PLoS ONE, 2017).
Like-named read-outs stand apart in the source and are kept apart here. Values belong to the compound of their own block, whether it stands above or below them.

Experiments:
mAb 80–2 = assay: Competition ELISA, mAb 80–2 binding to BSA-cGAMP; design: species or system mouse; settings: preincubated 1 hr; ATP, GTP at mM concentrations; in words
Experimental: After washing, plates were developed with substrate, the reaction was stopped with 2 N H2SO4 and OD was read at 450 nm. […] After incubation for 1 hr, plates were washed, incubated with secondary antibody, and developed as described above.

Human cGAS (aa 2–522) = molecular target: T1, Human cGAS (aa 2–522) (Homo sapiens, UniProt Q8N884); assay: cGAS activity mass spectrometry assay (cGAMP production by LC-MS); format: biochemical; settings: for Km: other nucleotide fixed: ATP 1 mM, GTP 300 μM, read-out: apparent Km; for effect of metals on cGAS activity: 1 nM cGAS, 1 nM dsDNA, in words
T1 construct: Amino acids 2-522 of human MB21D1 (Uniprot ID: Q8N884); made in house; host or cells: Spodoptera frugiperda Sf-9 (baculovirus)
T1 sequence (Q8N884 2-522): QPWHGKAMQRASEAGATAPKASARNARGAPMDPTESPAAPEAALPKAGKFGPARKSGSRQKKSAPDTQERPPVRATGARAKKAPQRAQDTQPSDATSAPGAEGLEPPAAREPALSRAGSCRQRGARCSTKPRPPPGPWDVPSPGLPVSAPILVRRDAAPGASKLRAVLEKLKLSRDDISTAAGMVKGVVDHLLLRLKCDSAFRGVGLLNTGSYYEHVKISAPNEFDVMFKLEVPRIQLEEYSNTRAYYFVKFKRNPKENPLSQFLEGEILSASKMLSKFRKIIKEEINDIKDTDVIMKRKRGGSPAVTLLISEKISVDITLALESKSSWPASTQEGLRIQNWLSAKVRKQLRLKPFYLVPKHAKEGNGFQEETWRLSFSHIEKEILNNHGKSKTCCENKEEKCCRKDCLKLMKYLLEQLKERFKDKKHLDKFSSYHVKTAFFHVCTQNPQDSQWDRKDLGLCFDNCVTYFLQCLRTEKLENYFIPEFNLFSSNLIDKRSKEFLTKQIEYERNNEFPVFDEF
Experimental: cGAS activity was measured in buffer (10 mM Hepes, 140 mM NaCl, 0.01% Tween-20, 5 mM MgCl2, pH 7.5) containing 1 mM ATP, 0.3 mM GTP, 100 nM ISD DNA (45 bp dsDNA), and 100 nM cGAS in the presence or absence of test compounds. […] The reaction was incubated for 30 minutes at 37°C and stopped with the addition of 50 mM EDTA. […] An earlier version of the assay utilized the same buffer and nucleotide conditions but was conducted in the presence of 1 nM cGAS, 1 nM ISD DNA and carried out for 6 h at 37°C before being processed as described above.
50 μl of H2O was added to each 25 μl cGAS reaction (384 well format). The samples were mixed by briefly vortexing followed by a 10 min, 3000 g centrifugation at room temperature. […] 10 μl of sample was injected on to a 2x30 mm hypercarb column (Thermo Scientific) kept at 60°C with a flow rate of 0.8 ml/min and a loop sweep time of 20 s. Mobile phase A consisted of 10 mM Ammonium Acetate, pH 10, and Mobile phase B consisted of 90:10 (Acetonitrile:Acetone 1:1): 10 mM Ammonium Acetate pH 10 + 0.1% formic acid. […] ATP and GTP had the following optimized parameters: dp 99 ep 10 ce 64 cxp 10. […] The data was processed using Sciex's Multiquant 3.0.

[1] = system: dsDNA-induced IFN-beta expression; assay: Cellular cGAS assay: dsDNA-induced IFN-beta expression via luciferase reporter in THP-1 Dual cells; format: cell-based, human
Experimental: (§1) Cellular Assays. THP-1 Dual monocytes cells containing NF-κB-SEAP and IRF-Luc Reporter (InvivoGen cat # thpd-nfis) were plated at 1x10^5 cells/well in U bottom 96 well plates in 100μL RPMI media containing10% FBS. Tested compounds were diluted in 100% DMSO to stock concentration of 30 mM. The TBK1 inhibitor BX-795 was obtained from Sigma-Aldrich (cat#SML0694-5MG) and used as a positive control. Cells were pretreated with DMSO or compounds for 1 hr at room temperature, followed by Lipofectamine™ 2000 (Thermo Fisher cat# 11668027) transfection with salmon sperm DNA (InvivoGen cat# tlrl-sdef) at 100 ng/well. Cells were incubated for 12 hrs at 37 ^◦C in a 5% CO2 incubator followed by centrifugation at 1000 rpm for 5 min. Media was collected and Lucia luciferase was measured using Quanti-Luc substrate (InvivoGen cat# rep-qlc1) according to the manufacturer’s protocol. Viability of cells was assessed using Promega CellTiter Glo luminescent viability assay (Promega cat# G7570) according to the manufacturer’s protocol. All data points were normalized to the salmon sperm DNA-treated wells (without compound) and expressed as percent of signal.

cGAS [2] = molecular target: T2, cGAS (Homo sapiens, UniProt Q8N884); assay: SPR binding to immobilized cGAS; settings: for Kd: absence of activating dsDNA, 4 °C
Experimental: SPR assays. SPR experiments were performed using NTA sensor chips in a BIACORE T200 (GE Healthcare). cGAS was immobilized to a final density ca 5000-10000 RU. Sample-dependent responses were subtracted from channel 1, which had neither Ni or protein immobilized on it. Data were further corrected by subtracting a zero-concentratio blank from all compounds. Compounds were injected for 30-60 s, dissociation was measured for 30-120 s at 60 μL/min, 4 °C. Experiments were performed in buffer contained 20 mM HEPES (pH 7.5), 150 mM KCl, 20 mM MgCl2, 1 mM TCEP and 1% DMSO. Samples were injected with a top concentration, followed by 2-fold dilutions, and a final blank over 12 injection points. […] Dissociation equilibrium constants (KD) were determined using a binary association model (T200 BIA Eval software).
Target sequence in this assay (Q8N884 whole entry): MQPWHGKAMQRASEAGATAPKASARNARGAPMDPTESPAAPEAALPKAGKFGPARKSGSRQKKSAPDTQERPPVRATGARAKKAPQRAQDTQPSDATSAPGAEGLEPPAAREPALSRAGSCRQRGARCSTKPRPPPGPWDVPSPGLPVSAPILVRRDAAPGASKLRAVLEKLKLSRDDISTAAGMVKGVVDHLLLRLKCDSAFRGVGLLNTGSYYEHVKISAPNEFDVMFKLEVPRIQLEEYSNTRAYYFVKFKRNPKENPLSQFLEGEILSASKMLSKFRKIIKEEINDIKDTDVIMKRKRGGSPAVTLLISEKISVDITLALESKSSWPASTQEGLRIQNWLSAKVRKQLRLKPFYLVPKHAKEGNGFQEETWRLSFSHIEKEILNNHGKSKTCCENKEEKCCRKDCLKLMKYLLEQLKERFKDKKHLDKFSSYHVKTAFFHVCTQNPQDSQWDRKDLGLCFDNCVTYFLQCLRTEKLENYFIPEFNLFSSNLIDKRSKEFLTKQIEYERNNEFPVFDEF

[3] = Chemical stability observed on resynthesis; format: physicochemical; settings: upon attempted resynthesis, in words
truncated h-cGAS = molecular target: T3, truncated h-cGAS (Homo sapiens, UniProt Q8N884); assay: STD 1H NMR cGAMP competition binding on truncated h-cGAS; settings: mixture with 2´,3´-cGAMP, in words
T3 construct: a previously crystalized cGAS construct beginning at residue 161 (cGAS161) (H. sapiens numbering)
T3 sequence (Q8N884 161-522 limits assumed): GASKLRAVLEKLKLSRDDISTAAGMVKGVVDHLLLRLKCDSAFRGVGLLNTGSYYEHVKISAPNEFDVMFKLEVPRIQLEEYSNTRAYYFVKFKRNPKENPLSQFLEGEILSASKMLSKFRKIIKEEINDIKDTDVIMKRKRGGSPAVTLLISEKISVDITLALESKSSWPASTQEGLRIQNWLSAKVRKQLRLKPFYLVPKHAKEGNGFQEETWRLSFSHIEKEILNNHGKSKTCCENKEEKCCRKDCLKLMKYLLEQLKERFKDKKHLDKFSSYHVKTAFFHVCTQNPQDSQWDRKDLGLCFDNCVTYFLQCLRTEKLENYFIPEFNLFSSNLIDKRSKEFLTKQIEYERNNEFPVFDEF
Experimental: Nuclear Magnetic Resonance (NMR). All NMR spectra were collected on a Bruker Avance III series 600 MHz spectrometer equipped with a 1.7 mm micro cryoprobe. For fragment screening, the Pfizer fragment library (~3,200 fragments) was screened against 3 μM truncated h-cGAS in 20 mM hepes (pH 7.5) buffer containing 150 mM KCl and 1 mM TCEP, and no DNA. The concentration of each fragment was 300 µM, and each sample contains either five or ten fragments in the mixture. Saturation transfer difference (STD) spectra for each fragment mixture were collected and binders were identified by comparing their STD signals with 1D reference spectra of the fragments in the mixture.

cGAS [4] = molecular target: T2, cGAS; assay: Cy5-cGAMP fluorescence polarization assay of cGAS activity; format: biochemical; design: Amino acids 2-522 of human MB21D1 (Uniprot ID: Q8N884); made in house; host or cells: Spodoptera frugiperda Sf-9 (baculovirus)
Target sequence in this assay (Q8N884 2-522): as the sequence (Q8N884 2-522) above

THP-1 Dual cells = assay: Cell viability, CellTiter Glo, THP-1 Dual cells; format: cell-based, human; settings: in words
Experimental: as §1

[5] = 1 mM ATP, 0.3 mM GTP, 100 nM ISD DNA, 100 nM cGAS, read-out: FP IC50
[6] = 1 mM ATP, 0.3 mM GTP, 100 nM ISD DNA, 100 nM cGAS, read-out: MS IC50

Structure (SMILES): Nc1ncnc2c1ncn2[C@@H]1O[C@H](COP(=O)(O)OP(=O)(O)OP(=O)(O)O)[C@@H](O)[C@H]1O [ATP]
inhibition of mAb 80–2 binding to BSA-cGAMP (mAb 80–2): neither ATP nor GTP at mM concentrations inhibited the binding
Km (Human cGAS (aa 2–522)): 35 µM

IC50 ([1]; Homo sapiens, THP1-Dual, positive control, read-out: IC50, inhibition of IFN-β induction): ~60 nM
Structure (SMILES): O=C(NCCCNc1nc(Nc2cccc(NC(=O)N3CCCC3)c2)ncc1I)c1cccs1 [BX-395, reference compound]

Kd (cGAS [2]): 171 µM
competition with 2´,3´-cGAMP for interacting with cGAS (1H STD) (truncated h-cGAS): out competed 2´,3´-cGAMP
Structure (SMILES): Oc1cc(-c2ccccc2)nc2nnnn12 [Compound 15]
chemical stability [3]: not chemically stable and readily isomerizes via an open-ring azidopyrimidine

IC50 (cGAS [4]; [5]): 125 µM
IC50 (cGAS [4]; text summary of Fig 3, spans MS and FP assay values, read-out: IC50, inhibition of cGAS functional activity): 69 to 125 µM
Kd (cGAS [2]): 78 µM
IC50 (Human cGAS (aa 2–522); [6]): 69 µM
Structure (SMILES): CNC(=O)c1cnn2c(=O)cc(-c3ccccc3)[nH]c12 [Compound 16, N-methyl-7-oxo-5-phenyl-4,7-dihydropyrazolo[1,5-a]pyrimidine-3-carboxamide]

IC50 (cGAS [4]; [5]): 15.1 µM
Kd (cGAS [2]): 12.5 µM
IC50 (Human cGAS (aa 2–522); [6]): 19 µM
Structure (SMILES): O=C(NCCO)c1cnn2c(=O)cc(-c3ccccc3)[nH]c12 [Compound 17, N-(2-hydroxyethyl)-7-oxo-5-phenyl-4,7-dihydropyrazolo[1,5-a]pyrimidine-3-carboxamide]

Structure (SMILES): O=C(O)CNC(=O)c1cnn2c(=O)cc(-c3ccccc3)[nH]c12 [Compound 18, (7-oxo-5-phenyl-4,7-dihydropyrazolo[1,5-a]pyrimidine-3-carbonyl)glycine]
IC50 (cGAS [4]): 10.6 µM
Kd (cGAS [2]): 6.7 µM
IC50 (Human cGAS (aa 2–522)): 21 µM

IC50 (cGAS [4]; [5]): 17.5 µM
Kd (cGAS [2]): 2.7 µM
IC50 (Human cGAS (aa 2–522); [6]): 8.1 µM
Structure (SMILES): C[C@@H](CO)NC(=O)c1cnn2c(=O)cc(-c3ccccc3)[nH]c12 [Compound 19, (S)-N-(1-hydroxypropan-2-yl)-7-oxo-5-phenyl-4,7-dihydropyrazolo[1,5-a]pyrimidine-3-carboxamide]

Structure (SMILES): Nc1nc2c(ncn2[C@@H]2O[C@H](COP(=O)(O)OP(=O)(O)OP(=O)(O)O)[C@@H](O)[C@H]2O)c(=O)[nH]1 [GTP]
inhibition of mAb 80–2 binding to BSA-cGAMP (mAb 80–2): neither ATP nor GTP at mM concentrations inhibited the binding
Km (Human cGAS (aa 2–522)): 30 µM

Structure (SMILES): O=C(N[C@H]1CCCC[C@H]1C(=O)O)c1cnn2c(=O)cc(-c3ccccc3)[nH]c12 [PF-06928215, (1R,2S)-2-(7-oxo-5-phenyl-4,7-dihydropyrazolo[1,5-a]pyrimidine-3 carboxamido) cyclohexane-1-carboxylic acid]
off rate kinetics (cGAS [2]; SPR sensorgram, in words): longer off rate kinetics than any other compound in this series
effect on cell viability (THP-1 Dual cells): minimal effect on cell viability
activity on dsDNA-induced IFN-beta expression ([1]; salmon sperm DNA 12 hrs, in words): no activity

Structure (SMILES): [Cu][Br] [copper, CuBr]
effect of metals on cGAS activity (Human cGAS (aa 2–522)): very sensitive to inhibition

Structure (SMILES): CC(=O)[O-].CC(=O)[O-].[Pd+2] [palladium, Pd(OAc)2]
effect of metals on cGAS activity (Human cGAS (aa 2–522)): very sensitive to inhibition

Structure (SMILES): [Cl-].[Cl-].[Zn+2] [zinc, ZnCl2]
effect of metals on cGAS activity (Human cGAS (aa 2–522)): increased enzymatic activity
